For the assay, the system named is Trypanosoma brucei brucei bloodstream form (BSF) parasites (cell line 90-13, a 427 strain). Description: Parasite viability assay (CellTiter Blue), bloodstream form African trypanosomes. Format: cell-based. The following applies: for % BSF Growth Inhibition @ 10 μM: 10 μM compound, 48 hours; for EC50: 48 hours at 37° C., averages of triplicates. The procedure: To determine the impact of diazacyclobutene derivatives on the growth of African trypanosomes (Trypanosoma brucei brucei) as a representative parasite, bloodstream form (BSF) parasites (cell line 90-13, a 427 strain at 1×10^5 cell/mL) were seeded into 384-well black plates in 40 μL HMI-9 supplemented with 10% fetal bovine serum and 10% Serum Plus (Sigma-Aldrich, St. Louis Mo.) in the presence of compound or equivalently diluted carrier. After 48 hours at 37° C. in 5% CO2, CellTiter Blue (8 μL, Promega, Madison Wis.) was added and the plates incubated an additional 3 hours. Fluorescence emission at A585 was then measured after excitation at A546 on a Synergy H1 Hybrid Reader (Biotek, Winooski Vt.). Averages of triplicates were calculated and fit to dose-response curves using Prism (Graphpad, San Diego Calif.) for the determination of EC50 values.

This is an account of results in patent US11510906B1, “Diazacyclobutene derivatives as anti-parasitic drug substances” (Clemson University, priority 2019, dated 2022).

What is called EC50 is the concentration needed to bring the measured effect to its halfway point. Take `Cc1ccc(S(=O)(=O)N(C)c2c(-c3ccccc3)n3c(=O)n(-c4ccccc4)c(=O)n23)cc1` [Compound 21]: the “% BSF Growth Inhibition @ 10 μM” value amounted to 2.5 ± 4.3% and the EC50 was above 10 µM. Regarding `C[Se]c1c(-c2ccccc2)n2c(=O)n(-c3ccccc3)c(=O)n12` [Compound 17], the “% BSF Growth Inhibition @ 10 μM” value turned out to be 46.1 ± 6.2% and the concentration giving a half-maximal response (EC50) is above 10 µM. Take `COc1ccc(-c2c(SC)n3c(=O)n(-c4ccccc4)c(=O)n23)cc1` [Compound 11]: the “% BSF Growth Inhibition @ 10 μM” value amounted to 77.1 ± 3.5% and the EC50 is above 5 µM. The like results for `CCCCSc1c(-c2ccccc2)n2c(=O)n(-c3ccccc3)c(=O)n12` [Compound 4] were, in that order, 80.5 ± 2.1% and above 5 µM.

Consider `CCSc1c(-c2ccccc2)n2c(=O)n(-c3ccccc3)c(=O)n12` [Compound 2], for which the “% BSF Growth Inhibition @ 10 μM” value was found to be 23.4 ± 5.7% and the EC50 is above 10 µM. On to `O=c1n(-c2ccccc2)c(=O)n2c(-c3ccccc3)c([Se]c3ccccc3)n12` [Compound 18], for which the “% BSF Growth Inhibition @ 10 μM” value is 84.24 ± 8.21%.

For `CCSc1c(-c2ccc(C)cc2)n2c(=O)n(-c3ccccc3)c(=O)n12` [Compound 10], the “% BSF Growth Inhibition @ 10 μM” value is reported as 95.2 ± 3.5% and the half-maximal effective concentration (EC50) came out at 3.66 ± 1.7 µM. Take `CSc1c(-c2ccc(Cl)cc2)n2c(=O)n(-c3ccccc3)c(=O)n12` [Compound 12]: the “% BSF Growth Inhibition @ 10 μM” value stood at 62.2 ± 2.7% and the half-maximal effective concentration (EC50) was above 5 µM. With `CCCCc1c(SC)n2c(=O)n(-c3ccccc3)c(=O)n12` [Compound 14], the “% BSF Growth Inhibition @ 10 μM” value was determined as 95.6 ± 1.2% and the concentration for a half-maximal effect (EC50) stood at 0.35 ± 0.04 µM. With `COc1cccc(-n2c(=O)n3c(SC)c(-c4ccccc4)n3c2=O)c1` [Compound 25], the concentration giving a half-maximal response (EC50) was above 10 µM.

Take `CCCCCSc1c(-c2ccccc2)n2c(=O)n(-c3ccccc3)c(=O)n12` [Compound 5]: the “% BSF Growth Inhibition @ 10 μM” value is reported as 98.21 ± 0.17% and the EC50 was 2.65 ± 0.16 µM. The like results for `O=c1n(-c2ccccc2)c(=O)n2c(-c3ccccc3)c(SCc3ccccc3)n12` [Compound 7] were, in that order, 98.87 ± 2.68% and 0.386 ± 0.034 µM. As to `CCCCSc1c(CCCC)n2c(=O)n(-c3ccccc3)c(=O)n12` [Compound 15], the “% BSF Growth Inhibition @ 10 μM” value came out at 59.2 ± 6.6%. Consider `CSc1c(-c2ccccc2)n2c(=O)n(-c3ccccc3)c(=O)n12` [Compound 1], for which the “% BSF Growth Inhibition @ 10 μM” value is reported as 35.6 ± 1.9% and the concentration for a half-maximal effect (EC50) was above 10 µM.

Consider `O=c1n(-c2ccccc2)c(=O)n2c(-c3ccccc3)c(Sc3ccccc3)n12` [Compound 8], for which the “% BSF Growth Inhibition @ 10 μM” value was found to be 11.5 ± 7% and the 50% effective concentration (EC50) was above 10 µM. In the same order, the values of `Cc1ccc(S(=O)(=O)N(C)c2c(-c3ccc(C(F)(F)F)cc3)n3c(=O)n(-c4ccccc4)c(=O)n23)cc1` [Compound 22] are 0% and above 10 µM. In the same order, the values of `CSc1c(-c2ccc(C(F)(F)F)cc2)n2c(=O)n(-c3ccccc3)c(=O)n12` [Compound 13] are 89.6 ± 2.8% and above 2.5 µM. As for `CSc1c(-c2ccc(C)cc2)n2c(=O)n(-c3ccccc3)c(=O)n12` [Compound 9], the EC50 was above 10 µM. On to `CCCCCCCCSc1c(-c2ccccc2)n2c(=O)n(-c3ccccc3)c(=O)n12` [Compound 6], for which the “% BSF Growth Inhibition @ 10 μM” value stood at 94.71 ± 3.48% and the EC50 was determined as 2.04 ± 0.21 µM.

For `CCCSc1c(-c2ccccc2)n2c(=O)n(-c3ccccc3)c(=O)n12` [Compound 3], the “% BSF Growth Inhibition @ 10 μM” value was determined as 96.6 ± 0.3% and the EC50 came to 5.83 ± 2.2 µM. As for `CSc1c(-c2ccccc2)n2c(=O)n(-c3cccc(Cl)c3)c(=O)n12` [Compound 23], the EC50 worked out at 7.08 ± 1.9 µM.
